Data reported in patent US11180462B2, “Microbiocidal oxadiazole derivatives” (SYNGENTA PARTICIPATIONS AG, priority 2015, dated 2021).

Key:
[1] = system: Puccinia recondita f. Sp. Tritici; assay: Fungicidal activity against Puccinia recondita f. sp. tritici / wheat / leaf disc preventative (brown rust); assay type: in vivo; conditions: foliar, 200 ppm in the applied formulation, wheat leaf segments, preventative, compared to untreated control leaf disks, read-out: disease control
Method in brief: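 Compound application precedes infection: segments of wheat cv. Kanzler, sprayed at 200 ppm, are inoculated with a spore suspension after 1 day. Incubation is at 19° C. with 75% relative humidity and 12 h light/12 h darkness, and control versus untreated leaves is rated 7 to 9 days post-application.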

Phakopsora Pachyrhizi = assay: Fungicidal activity against Phakopsora pachyrhizi / soybean / leaf disc preventative (Asian soybean rust); assay type: in vivo; conditions: foliar, 200 ppm in the applied formulation, soybean leaf disks, compared to untreated control leaf disks, read-out: disease control
Method in brief: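 Preventative soybean leaf-disc test: discs on water agar sprayed with diluted formulated compound, inoculated one day later with spores on the lower surface. Held 24–36 h dark at 20°C, 75% rh, then 12 h light/day; percent disease control versus untreated discs scored 12–14 days after application.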

[2] = system: Glomerella lagenarium (Colletotrichum lagenarium); assay: Fungicidal activity against Glomerella lagenarium (Colletotrichum lagenarium) liquid culture / cucumber / preventative (anthracnose); assay type: cell-based; conditions: Colletotrichum orbiculare; 20 ppm in the applied formulation; liquid culture (PDB), growth inhibition measured photometrically after 3 to 4 days; compared to untreated control; read-out: disease control
Method in brief: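 Photometric read-out of fungal growth after 2–7 days, expressed as percent antifungal activity versus untreated check. Cryo-stored conidia in PDB; compound at 20 ppm; dark, 24 °C, 96% RH.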

[3] = system: Puccinia recondita f. Sp. Tritici; assay: Fungicidal activity against Puccinia recondita f. sp. tritici / wheat / leaf disc curative (brown rust); assay type: in vivo; conditions: foliar, 24 h, 200 ppm in the applied formulation, wheat leaf segments, curative (applied 1 day after inoculation), compared to untreated control leaf disks, read-out: disease control
Method in brief: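 Segments of wheat cv. Kanzler were laid on agar and inoculated with a spore suspension of the rust, then held in darkness at 19° C and 75% relative humidity. One day later the water-diluted formulated compound was applied, with incubation continued under a 12 h light/dark cycle.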

Compound	melting point [°C]	pest or weed control at 200 ppm [1] [%]	pest or weed control at 200 ppm (Phakopsora Pachyrhizi) [%]	inhibition of growth at 20 ppm [2] [%]	pest or weed control at 200 ppm [3] [%]
CON(C)C(=O)N(O)Cc1ccc(-c2noc(C(F)(F)F)n2)cc1 [Compound 3.29, 1-hydroxy-3-methoxy-3-methyl-1-[[4-[5-(trifluoromethyl)-1,2,4-oxadiazol-3-yl]phenyl]methyl]urea]	96.3 to 100.5	≥ 80	≥ 80	≥ 80	≥ 80
CON(C)C(=O)N(C)C(C#N)c1ccc(-c2noc(C(F)(F)F)n2)cc1 (stereo not drawn) [Compound 3.31, 1-[cyano-[4-[5-(trifluoromethyl)-1,2,4-oxadiazol-3-yl]phenyl]methyl]-3-methoxy-1,3-dimethyl-urea]	106 to 107	≥ 80	≥ 80	≥ 80	≥ 80
CON(Cc1ccc(-c2noc(C(F)(F)F)n2)cc1)C(N)=O [Compound 3.32, 1-methoxy-1-[[4-[5-(trifluoromethyl)-1,2,4-oxadiazol-3-yl]phenyl]methyl]urea]	112.2 to 114.7	≥ 80	≥ 80	≥ 80	≥ 80
CNC(=O)N(C)Cc1ccc(-c2noc(C(F)(F)F)n2)cc1 [Compound 3.37, 1,3-dimethyl-1-[[4-[5-(trifluoromethyl)-1,2,4-oxadiazol-3-yl]phenyl]methyl]urea]	95 to 98	≥ 80	≥ 80	≥ 80	≥ 80
CON(Cc1ccc(-c2noc(C(F)(F)F)n2)cc1)C(=O)NCC(F)(F)F [Compound 3.38, 1-methoxy-3-(2,2,2-trifluoroethyl)-1-[[4-[5-(trifluoromethyl)-1,2,4-oxadiazol-3-yl]phenyl]methyl]urea]	95 to 98	≥ 80	≥ 80	≥ 80	≥ 80
CON(Cc1ccc(-c2noc(C(F)(F)F)n2)cc1)C(=O)NC1(C#N)CC1 [Compound 3.47, 3-(1-cyanocyclopropyl)-1-methoxy-1-[[4-[5-(trifluoromethyl)-1,2,4-oxadiazol-3-yl]phenyl]methyl]urea]	106 to 109	≥ 80	≥ 80	≥ 80	≥ 80
CCOC(=O)C1(NC(=O)N(Cc2ccc(-c3noc(C(F)(F)F)n3)cc2)OC)CC1 [Compound 3.48, ethyl 1-[[methoxy-[[4-[5-(trifluoromethyl)-1,2,4-oxadiazol-3-yl]phenyl]methyl]-carbamoyl]amino]-cyclopropanecarboxylate]	93 to 97	≥ 80	≥ 80	≥ 80	≥ 80
CON(Cc1ccc(-c2noc(C(F)(F)F)n2)cc1)C(=O)NCC(=O)N(C)C [Compound 3.51, 2-[[methoxy-[[4-[5-(trifluoromethyl)-1,2,4-oxadiazol-3-yl]phenyl]methyl]-carbamoyl]amino]-N,N-dimethyl-acetamide]	98 to 101	≥ 80	≥ 80	≥ 80	≥ 80
CON(Cc1ccc(-c2noc(C(F)(F)F)n2)cc1)C(=O)NC1COC1 [Compound 3.55, 1-methoxy-3-(oxetan-3-yl)-1-[[4-[5-(trifluoromethyl)-1,2,4-oxadiazol-3-yl]phenyl]methyl]urea]	97 to 100	≥ 80	≥ 80	≥ 80	≥ 80
CN(Cc1ccc(-c2noc(C(F)(F)F)n2)cc1)C(=O)NC1CC1 [Compound 3.56, 3-cyclopropyl-1-methyl-1-[[4-[5-(trifluoromethyl)-1,2,4-oxadiazol-3-yl]phenyl]methyl]urea]	113 to 121	≥ 80	≥ 80	≥ 80	≥ 80

More lines, main results first:

melting point [°C]	Compound	pest or weed control at 200 ppm [1] [%]	pest or weed control at 200 ppm (Phakopsora Pachyrhizi) [%]	inhibition of growth at 20 ppm [2] [%]	pest or weed control at 200 ppm [3] [%]
155 to 158	CON(Cc1ccc(-c2noc(C(F)(F)F)n2)cc1)C(=O)NCC#N [Compound 3.39, 3-(cyanomethyl)-1-methoxy-1-[[4-[5-(trifluoromethyl)-1,2,4-oxadiazol-3-yl]phenyl]methyl]urea]	≥ 80	≥ 80	≥ 80	≥ 80
99 to 102	CON(Cc1ccc(-c2noc(C(F)(F)F)n2)cc1)C(=O)N[C@@H](C)C1CC1 [Compound 3.41, 3-[(1S)-1-cyclopropylethyl]-1-methoxy-1-[[4-[5-(trifluoromethyl)-1,2,4-oxadiazol-3-yl]phenyl]methyl]urea]	≥ 80	≥ 80	≥ 80	≥ 80
106 to 107.3	CON(Cc1ccc(-c2noc(C(F)(F)F)n2)cc1)C(=O)NC(C)C [Compound 3.42, 3-isopropyl-1-methoxy-1-[[4-[5-(trifluoromethyl)-1,2,4-oxadiazol-3-yl]phenyl]methyl]urea]	≥ 80	≥ 80	≥ 80	≥ 80
88.9 to 90.6	C#CCNC(=O)N(Cc1ccc(-c2noc(C(F)(F)F)n2)cc1)OC [Compound 3.43, 1-methoxy-3-prop-2-ynyl-1-[[4-[5-(trifluoromethyl)-1,2,4-oxadiazol-3-yl]phenyl]methyl]urea]	≥ 80	≥ 80	≥ 80	≥ 80
93 to 97	CON(Cc1ccc(-c2noc(C(F)(F)F)n2)cc1)C(=O)NC1(C)CC1 [Compound 3.46, 1-methoxy-3-(1-methylcyclopropyl)-1-[[4-[5-(trifluoromethyl)-1,2,4-oxadiazol-3-yl]phenyl]methyl]urea]	≥ 80	≥ 80	≥ 80	≥ 80
